biological target: T1, NAT1 (arylamine N-acetyltransferase 1) (Homo sapiens, UniProt P18440); experiment: in vitro; conditions: ZR-75-1 cells, probe arylamine and AcCoA
T1 sequence (P18440 whole entry): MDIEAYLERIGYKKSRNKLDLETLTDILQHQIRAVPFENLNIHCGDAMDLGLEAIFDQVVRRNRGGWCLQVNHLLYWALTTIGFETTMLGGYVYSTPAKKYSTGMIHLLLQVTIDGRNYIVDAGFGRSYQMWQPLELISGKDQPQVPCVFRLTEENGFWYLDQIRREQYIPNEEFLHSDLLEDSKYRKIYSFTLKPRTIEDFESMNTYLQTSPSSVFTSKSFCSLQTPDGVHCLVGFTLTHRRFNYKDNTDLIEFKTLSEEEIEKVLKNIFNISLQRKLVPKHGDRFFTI

| inhibition at 1 µM | SMILES |
| --- | --- |
| > 50% | Cc1cc(C)cc(NC2=C(NS(=O)(=O)c3ccccc3)C(=O)c3ccccc3C2=O)c1 |
| > 50% | Cc1cc(C)cc(NC2=C(NS(=O)(=O)c3ccc(F)cc3)C(=O)c3ccccc3C2=O)c1 |
| > 50% | Cc1cc(C)cc(NC2=C(NS(=O)(=O)c3ccccc3)C(=O)c3cc(N)ccc3C2=O)c1 |
| > 50% | Cc1cc(C)cc(NC2=C(NS(=O)(=O)c3ccccc3)C(=O)c3c(N)cccc3C2=O)c1 |

biological target: T2, NAT2 (arylamine N-acetyltransferase 2) (Homo sapiens, UniProt P11245); experiment: in vitro; conditions: probe arylamine and AcCoA
T2 sequence (P11245 whole entry): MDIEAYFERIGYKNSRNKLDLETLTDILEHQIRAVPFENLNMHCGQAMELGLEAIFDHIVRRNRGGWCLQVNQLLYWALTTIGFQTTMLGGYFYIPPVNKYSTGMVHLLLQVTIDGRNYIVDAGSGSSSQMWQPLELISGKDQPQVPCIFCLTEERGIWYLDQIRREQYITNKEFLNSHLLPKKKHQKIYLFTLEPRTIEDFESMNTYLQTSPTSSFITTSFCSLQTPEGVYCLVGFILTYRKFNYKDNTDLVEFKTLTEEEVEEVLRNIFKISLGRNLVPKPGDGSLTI

| inhibition at 30 µM | SMILES |
| --- | --- |
| > 50% | O=Cc1cccc(C2=C(NC(=O)c3ccccc3)C(=O)c3ccccc3C2=O)c1 |
| > 50% | O=C(NC1=C(c2ccoc2)C(=O)c2ccccc2C1=O)c1ccccc1 |

tested on: not listed separately; experiment: physchem; conditions: buffered solution containing 5% DMSO

| pKa at 100 µM | SMILES |
| --- | --- |
| 9.5 | O=C1C(Nc2ccccc2)=C(NS(=O)(=O)c2ccccc2)C(=O)c2ccccc21 |
| 9.2 | Cc1cc(C)cc(NC2=C(NS(=O)(=O)c3ccccc3)C(=O)c3ccccc3C2=O)c1 |
| 10.4 | O=C1C(Nc2ccc(Br)cc2)=C(NS(=O)(=O)c2ccccc2)C(=O)c2ccccc21 |
| 9.8 | COCCNC1=C(NS(=O)(=O)c2ccccc2)C(=O)c2ccccc2C1=O |
| 10.1 | O=C1C(NC2CCCC2)=C(NS(=O)(=O)c2ccccc2)C(=O)c2ccccc21 |
| 10.4 | O=C1C(NCc2ccccc2)=C(NS(=O)(=O)c2ccccc2)C(=O)c2ccccc21 |
| 5 | O=C1C(NS(=O)(=O)c2ccccc2)=C(Oc2ccccc2)C(=O)c2ccccc21 |
| 5 | Cc1cc(C)cc(OC2=C(NS(=O)(=O)c3ccccc3)C(=O)c3ccccc3C2=O)c1 |
| 5 | O=C1C(NS(=O)(=O)c2ccccc2)=C(Oc2ccc(Br)cc2)C(=O)c2ccccc21 |
| 4.9 | O=C1C(NS(=O)(=O)c2ccccc2)=C(c2ccccc2Cl)C(=O)c2ccccc21 |
| 4.5 | O=C1C(NS(=O)(=O)c2ccccc2)=C(c2cccc(Cl)c2)C(=O)c2ccccc21 |
| 5 | O=C1C(NS(=O)(=O)c2ccccc2)=C(c2ccc(Cl)cc2)C(=O)c2ccccc21 |
| 5 | O=Cc1cccc(C2=C(NS(=O)(=O)c3ccccc3)C(=O)c3ccccc3C2=O)c1 |
| 4.6 | O=Cc1ccc(C2=C(NS(=O)(=O)c3ccccc3)C(=O)c3ccccc3C2=O)cc1 |
| 5.1 | O=C1C(NS(=O)(=O)c2ccccc2)=C(c2ccco2)C(=O)c2ccccc21 |
| 5 | O=C1C(NS(=O)(=O)c2ccccc2)=C(c2ccoc2)C(=O)c2ccccc21 |
| 9.5 | Cc1cc(C)cc(NC2=C(NS(C)(=O)=O)C(=O)c3ccccc3C2=O)c1 |
| 10.6 | Cc1cc(C)cc(NC2=C(NS(=O)(=O)C3CCCCC3)C(=O)c3ccccc3C2=O)c1 |
| 9.3 | Cc1cc(C)cc(NC2=C(NS(=O)(=O)c3ccccc3C)C(=O)c3ccccc3C2=O)c1 |

| pKa at 100 µM | SMILES |
| --- | --- |
| 7.9 | Cc1cc(C)cc(NC2=C(NS(=O)(=O)c3ccccc3[N+](=O)[O-])C(=O)c3ccccc3C2=O)c1 |
| 8.4 | Cc1cc(C)cc(NC2=C(NS(=O)(=O)c3c(F)cccc3F)C(=O)c3ccccc3C2=O)c1 |
| 8.6 | Cc1cc(C)cc(NC2=C(NS(=O)(=O)c3cccc([N+](=O)[O-])c3)C(=O)c3ccccc3C2=O)c1 |
| 9.7 | Cc1ccc(S(=O)(=O)NC2=C(Nc3cc(C)cc(C)c3)C(=O)c3ccccc3C2=O)cc1 |
| 9.9 | Cc1cc(C)cc(NC2=C(NS(=O)(=O)c3ccc(F)cc3)C(=O)c3ccccc3C2=O)c1 |
| 8.3 | Cc1cc(C)cc(NC2=C(NS(=O)(=O)c3ccco3)C(=O)c3ccccc3C2=O)c1 |
| 10 | Cc1cc(C)cc(NC2=C(NS(=O)(=O)Cc3ccccc3)C(=O)c3ccccc3C2=O)c1 |
| 10.9 | O=Cc1cccc(C2=C(NC(=O)c3ccccc3)C(=O)c3ccccc3C2=O)c1 |
| 12.1 | O=C(NC1=C(c2ccoc2)C(=O)c2ccccc2C1=O)c1ccccc1 |
| 11.4 | O=Cc1cccc(C2=C(NC(=O)Cc3ccccc3)C(=O)c3ccccc3C2=O)c1 |
| 12.5 | O=C(Cc1ccccc1)NC1=C(c2ccoc2)C(=O)c2ccccc2C1=O |
| 8.2 | Cc1cc(C)cc(NC2=C(NS(=O)(=O)c3ccccc3)C(=O)c3cccc([N+](=O)[O-])c3C2=O)c1 |
| 7.5 | Cc1cc(C)cc(NC2=C(NS(=O)(=O)c3ccccc3)C(=O)c3ccc([N+](=O)[O-])cc3C2=O)c1 |
| 8 | Cc1cc(C)cc(NC2=C(NS(=O)(=O)c3ccccc3)C(=O)c3cc([N+](=O)[O-])ccc3C2=O)c1 |
| 8.6 | Cc1cc(C)cc(NC2=C(NS(=O)(=O)c3ccccc3)C(=O)c3c(cccc3[N+](=O)[O-])C2=O)c1 |
| 8.4 | O=C1C(Nc2ccccc2)=C(NS(=O)(=O)c2ccccc2)C(=O)c2c1cccc2[N+](=O)[O-] |
| 8.4 | Cc1cc(C)cc(NC2=C(NS(=O)(=O)c3ccccc3)C(=O)c3c(N)cccc3C2=O)c1 |
| 8.2 | Nc1cccc2c1C(=O)C(NS(=O)(=O)c1ccccc1)=C(Nc1ccccc1)C2=O |
